{
  "source": "patent US20230381273A1",
  "about": "“NANOPARTICLE IN WHICH ANTIBACTERIAL PEPTIDE IS ENCAPSULATED WITH CHITOSAN AND USE THEREOF” (NATIONAL MARINE BIODIVERSITY INSTITUTE OF KOREA, priority 2022, published 2023)",
  "type_in_all_cases": "cell-based",
  "key": {"[1]": {"assay": "MTT cell viability assay (cytotoxicity)", "conditions": "human, HEK293 cells", "method": "After treating HEK293 cells with octominin-CNP and octominin, MTT (3-(4,5-dimethylthiazol-2-yl)-2,5-diphenyltetrazolium bromide) assay was performed to confirm cell viability.\nFirst, HEK293 cells were cultured using DMEM (Dulbecco's modified Eagle's medium (Sigma-Aldrich, Munich, Germany)) containing 10% (v/v) fetal bovine serum (FBS, (Sigma-Aldrich, Munich, Germany)) and antibiotic-antimycotic (Thermo Fisher Scientific, Waltham, MA, USA). In addition, it was cultured for 24 hours under humidified conditions of 5% CO2 and 37° C. The cells were collected and seeded in a 96-well microplate at a cell density of 2.0×10^5 cells/mL (100 μL/well) and allowed to adhere to the well for 12 hours. The culture medium was then replaced, and they were treated with octominin-CNP (0 to 400 μg/mL) or octominin (0 to 400 μg/mL). After 24 hours of culture, the culture medium was replaced with fresh medium (90 μL), and 10 μL of MTT ([…]) was added to each well, followed by incubation at 37° C. for 4 hours. Then, 50 μL of DMSO was added to the wells in which the culture medium was eradicated to solubilize the resulting formazan dye. Their absorbances were measured at 595 nm using a microplate spectrophotometer (Bio-Rad, Saint Louis, (MO, USA))."}, "[2]": {"tested_on": "Acinetobacter baumannii", "method": "(§1) Prior to confirming the antibacterial and antifungal activity of octominin-CNP or free octominin, for the antibacterial activity of octominin against Acinetobacter baumannii (A. baumannii) through preliminary analysis, it was confirmed that minimum inhibitory concentration (MIC) was 5 μg/mL, and the minimum bactericidal concentration (MBC) was 10 μg/mL. In addition, for the antifungal activity against Candida albicans (C. albicans), it was confirmed that the MIC was 50 μg/mL and the minimum fungicidal concentration (MFC) was 200 μg/mL. Accordingly, the antibacterial and antifungal activities of octominin-CNP and free octominin against A. baumannii and C. albicans were confirmed at the MIC and MBC/MFC peptide concentrations."}, "[3]": {"tested_on": "Candida albicans", "method": "as §1"}},
  "note": "Peptide text beside a SMILES is read from it.",
  "data": [
    {"molecule": "CC[C@H](C)[C@H](NC(=O)[C@H](C)NC(=O)[C@H](CCCCN)NC(=O)CNC(=O)[C@H](C)NC(=O)[C@H](Cc1c[nH]cn1)NC(=O)[C@@H](NC(=O)[C@H](C)NC(=O)CNC(=O)[C@H](CCCNC(=N)N)NC(=O)[C@@H](NC(=O)[C@H](CC(C)C)NC(=O)[C@H](Cc1c[nH]c2ccccc12)NC(=O)CN)[C@@H](C)CC)[C@@H](C)CC)C(=O)N[C@@H](Cc1c[nH]cn1)C(=O)NCC(=O)N[C@@H](CC(C)C)C(=O)N[C@H](C(=O)N[C@@H](Cc1c[nH]cn1)C(=O)N[C@@H](CCCNC(=N)N)C(=O)N[C@@H](CCCNC(=N)N)C(=O)N[C@@H](CCCNC(=N)N)C(=O)N[C@@H](Cc1c[nH]cn1)C(=O)O)[C@@H](C)CC", "note": "[octominin] (H-GWLIRGAIHAGKAIHGLIHRRRH-OH)", "values": [
      {"measurement": "viability at 24 h, 400 µg/mL", "setting": "[1]", "result": 85.2, "unit": "%"},
      {"measurement": "minimum bactericidal concentration (MBC)", "setting": "[2]", "result": 10, "unit": "µg/mL"},
      {"measurement": "minimum inhibitory concentration (MIC)", "setting": "[2]", "result": 5, "unit": "µg/mL"},
      {"measurement": "MIC", "setting": "[3]", "result": 50, "unit": "µg/mL"},
      {"measurement": "minimum fungicidal concentration (MFC)", "setting": "[3]", "result": 200, "unit": "µg/mL"}
    ]}
  ]
}
